Legend:
Assay in all cases: Large panel kinase profiling
Assay type in all cases: biochemical
Conditions in all cases: 1 μM test article, 1 mM ATP
BRSK1 = biological target: T1, BRSK1 (Homo sapiens, UniProt Q8TDC3)
T1 sequence (Q8TDC3 1-778): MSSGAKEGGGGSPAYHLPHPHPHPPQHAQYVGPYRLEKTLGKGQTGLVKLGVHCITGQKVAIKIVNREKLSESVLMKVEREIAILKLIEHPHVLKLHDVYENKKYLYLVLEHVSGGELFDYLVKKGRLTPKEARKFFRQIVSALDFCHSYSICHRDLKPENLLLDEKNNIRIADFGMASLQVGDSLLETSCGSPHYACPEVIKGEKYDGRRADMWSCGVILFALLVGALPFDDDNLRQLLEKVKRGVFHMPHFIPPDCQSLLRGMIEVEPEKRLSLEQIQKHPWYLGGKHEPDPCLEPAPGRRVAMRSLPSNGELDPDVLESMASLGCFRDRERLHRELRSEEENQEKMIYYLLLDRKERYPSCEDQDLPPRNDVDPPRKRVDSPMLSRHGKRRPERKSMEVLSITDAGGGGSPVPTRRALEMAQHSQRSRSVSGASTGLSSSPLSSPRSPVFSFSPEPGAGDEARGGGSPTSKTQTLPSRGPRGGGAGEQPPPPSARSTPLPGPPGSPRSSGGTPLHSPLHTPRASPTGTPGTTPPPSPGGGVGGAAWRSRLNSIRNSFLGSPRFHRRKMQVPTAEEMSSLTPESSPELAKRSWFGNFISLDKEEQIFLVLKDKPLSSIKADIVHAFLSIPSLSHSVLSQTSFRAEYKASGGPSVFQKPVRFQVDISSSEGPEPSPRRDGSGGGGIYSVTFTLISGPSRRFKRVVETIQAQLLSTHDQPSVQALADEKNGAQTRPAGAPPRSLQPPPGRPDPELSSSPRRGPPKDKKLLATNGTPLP
Method: (§1) Large panel kinase profiling was performed at AssayQuant Technologies, Inc. 260 Cedar Hill Street, Marlborough, Mass. 01752 using the PhosphoSens® CSox-Sensor platform using 1 μM test article concentration and 1 mM ATP concentration (www.assayquant.com). Reactions were run in Corning, half-area 96-well, white flat round bottom polystyrene NBS microplates (Cat. #3642) after sealing using optically-clear adhesive film (TopSealA-Plus plate seal, PerkinElmer), applied with either a roller or a paddle to eliminate evaporation and resulting drift. The standard total reaction volume was 50 μL. All experiments were ran at 30° C. to control for fluctuations in ambient temperature. Plates were read from the top in kinetic mode (readings taken every 1 min), monitoring fluorescence intensity with filters using Ex 360 nm and Em 485 nm and a band width of 40 and 20 nm, respectively, and a gain of 80. Data analysis was performed using either Graphpad Prism or Gene Data Screener software.

CAMK4 = biological target: T2, CAMK4 (Homo sapiens, UniProt Q16566)
T2 construct: AssayQuant Technologies, Inc. (ran the panel)
T2 sequence (Q16566 1-473): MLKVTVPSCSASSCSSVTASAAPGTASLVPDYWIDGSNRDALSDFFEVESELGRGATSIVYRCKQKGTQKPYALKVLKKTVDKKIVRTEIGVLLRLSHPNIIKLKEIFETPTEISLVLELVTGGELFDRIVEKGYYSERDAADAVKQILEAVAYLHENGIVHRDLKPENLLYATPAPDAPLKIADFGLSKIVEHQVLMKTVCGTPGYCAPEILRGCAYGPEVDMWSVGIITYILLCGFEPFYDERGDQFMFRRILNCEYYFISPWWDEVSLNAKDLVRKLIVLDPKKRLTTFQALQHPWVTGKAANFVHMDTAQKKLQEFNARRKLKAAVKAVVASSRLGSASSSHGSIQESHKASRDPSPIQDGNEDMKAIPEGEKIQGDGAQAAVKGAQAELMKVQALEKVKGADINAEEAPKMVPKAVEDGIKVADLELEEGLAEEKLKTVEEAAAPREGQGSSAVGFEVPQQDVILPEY
Method: as §1

MAP4K2/GCK = biological target: T3, MAP4K2/GCK (Homo sapiens, UniProt Q12851)
T3 construct: AssayQuant Technologies, Inc. (service provider)
T3 sequence (Q12851 1-820): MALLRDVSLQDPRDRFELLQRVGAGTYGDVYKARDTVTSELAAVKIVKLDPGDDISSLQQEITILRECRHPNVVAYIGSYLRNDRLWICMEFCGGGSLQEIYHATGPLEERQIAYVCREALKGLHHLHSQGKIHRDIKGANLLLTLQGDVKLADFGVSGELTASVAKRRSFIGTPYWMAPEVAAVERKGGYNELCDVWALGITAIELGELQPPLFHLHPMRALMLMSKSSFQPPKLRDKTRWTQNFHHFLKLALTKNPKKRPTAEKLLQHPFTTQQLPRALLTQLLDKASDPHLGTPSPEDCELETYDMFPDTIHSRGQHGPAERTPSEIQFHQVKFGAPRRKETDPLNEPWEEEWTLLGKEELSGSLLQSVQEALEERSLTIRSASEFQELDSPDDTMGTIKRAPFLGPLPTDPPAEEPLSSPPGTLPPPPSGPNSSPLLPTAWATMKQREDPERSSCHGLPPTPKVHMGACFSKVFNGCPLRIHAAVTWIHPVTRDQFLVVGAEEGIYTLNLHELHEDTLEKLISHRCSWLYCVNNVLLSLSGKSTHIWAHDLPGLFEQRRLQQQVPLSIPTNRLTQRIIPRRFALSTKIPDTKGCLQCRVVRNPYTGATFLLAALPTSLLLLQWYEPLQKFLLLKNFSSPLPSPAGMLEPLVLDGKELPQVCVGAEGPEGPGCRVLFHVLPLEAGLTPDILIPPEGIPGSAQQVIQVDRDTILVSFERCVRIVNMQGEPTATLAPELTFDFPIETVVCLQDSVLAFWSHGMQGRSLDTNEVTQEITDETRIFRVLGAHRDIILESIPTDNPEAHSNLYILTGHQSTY
Method: as §1

SMILES | inhibition at 1 µM (BRSK1) | inhibition at 1 µM (CAMK4) | inhibition at 1 µM (MAP4K2/GCK)
C=CC(=O)N1CCCC(c2c(F)cc(C(N)=O)c3[nH]c4c(c23)CCCCC4)C1 (single isomer, unassigned) [Compound 5-6] | -30.9% | 15.7% | -46.6%
C=CC(=O)N1CCC[C@@H](c2c(F)cc(C(N)=O)c3[nH]c4c(c23)CC2(CC4)CC2)C1 [Compound 6-2, (S)-5-(1-acryloylpiperidin-3-yl)-6-fluoro-1,2,4,9-tetrahydrospiro[carbazole-3,1′-cyclopropane]-8-carboxamide] | -13% | 26.6% | -1.3%
C=CC(=O)N1CCC[C@@H](c2c(F)cc(C(N)=O)c3[nH]c4c(c23)CCC4)C1 [Compound 10-2, (S)-8-(1-acryloylpiperidin-3-yl)-7-fluoro-1,2,3,4-tetrahydrocyclo-penta[b]indole-5-carboxamide] | 10.1% | 15.3% | -1.3%
